The source of these data is patent US20230416191A1, “Compounds, Compositions and Methods for the Treatment of CREB-dependent Diseases” (Sereno Sciences, Inc., priority 2022, published 2023).

Where two headings read alike, the source gives them in different places.

Data set [1] deals with CREB-mediated gene transcription. Kind of data set: Inhibition of CREB-mediated gene transcription (CRE Renilla luciferase reporter, forskolin stimulated). The format is cell-based. Particulars: 5 h, HEK293T CRE luciferase reporter cells, forskolin 10 uM. The method, then:
The compounds were tested for their inhibition of CREB-mediated gene transcription according to the method described in Xie et al. J. Med. Chem. 2015, 58, 5075-5087. Generally, HEK293T cell transfected with luciferase reporter cell lines under CRE control were obtained from commercial sources. The cells were plated into 96-well plates (1-[…] cells/well). The cells were allowed to attach to the bottom of the wells overnight, when compounds of different concentrations were added to the cells. Forskolin (10 uM, LC Laboratories, Woburn, Mass.) was added 30 min after the addition of the compounds. The cells were then incubated at 37° C. for 5 h. The media in the wells were removed and the cells were then lysed in 30 µl of 1×Renilla luciferase lysis buffer (Promega, Madison, Wis.). To measure Renilla luciferase activity, five uL of the lysate was combined with 30 uI of benzyl-coelenterazine (Nanolight, Pinetop, Ariz.) solution in PBS (pH 7.4, 10 ug/mL). The sample protein concentration was determined by Dye Reagent Concentrate (Bio-Rad, Hercules, Calif). The Renilla luciferase activity was normalized to protein content in each well and expressed as relative luciferase unit/ug protein (RLU/ug protein). The IC50 was derived from non-linear regression analysis of the RLU/ug protein-concentration curve.

Data set [2] is described as follows: Mouse pharmacokinetics, plasma by LC-MS/MS. The format is in vivo, mice (C57BL/6). Particulars: female C57BL/6 mice. The method, then: The compound was formulated in an aqueous solution containing 5% Tween-80, 10% DMSO. Female mice (C57BL/6) were given a single dose of the formulation at 5 mg/kg (IV), 10 mg/kg (IP) and 20 mg/kg (orally). At different time points (0.083, 0.25, 0.5, 1, 2, 4, 8, 24 h) post drug administration, blood was collected and the plasma was prepared. The samples were stored at −80° C. until analysis. The drug concentration in the plasma was analyzed by LC-MS/MS.

The subject of another data set is Hep3B. Kind of data set: Cytotoxicity assay (Cell-titer-Glow, 72 hr). It counts as cell-based. The note with it: Homo sapiens, Hep3B cells, read-out: IC50 for inhibition of Hep3B. How it is done: (§1) The cells were obtained from ATCC, IMDM was obtained from Lonza, and FBS was obtained from Hyclone. Cell-titer-Glow for cytotoxicity was from Promega. Sterile 96-well tissue culture plates were from Corning. Different concentrations of the test compounds were tested in triplicate wells of either 96-well or 384-well tissue culture plates. The screening was repeated two additional times. The cells from ATCC were thawed, washed once with complete media, and cultured in T75 flask in a 37C CO2 incubator. Cell density was maintained between 5×10 5 to 1×10^6 cells/ml. Compounds were individually weighed and dissolved in DMSO to obtain 10 mM solutions of each and stored at −20° C. until used. To select concentrations of the compounds for cytotoxicity, all the compounds were initially tested at 100 μM and 30 μM in a 48 hr cytotoxicity assay. Two microliter of each concentration of the test compounds were transferred into triplicate wells of a 96-well tissue culture plate. Into each well 100 μof the cell suspension was added, the plate was lidded and incubated at 37° C. in a 5% CO2 incubator maintained at 95% humidity After 72hr of incubation, the plate was removed from the incubator, and the cell viability was determined using Cell-titer-glow reagent as per the protocol described in the kit manual. Signals from the plate was measured using Victor-II plate reader. The raw data from the plate reader were exported to Excel. For each concentration of the drug tested the average signal and SD from the triplicate wells, as well as the percent cytotoxicity were calculated. The resulting data were exported to Prism-graph-pad, the % cytotoxicity was plotted against log concentration and the resulting curves were fitted using non-linear dose response fit and the resulting IC50 values were extracted.

The next data set has as its system MiaPaCa2. Kind of data set: Cytotoxicity assay (Cell-titer-Glow, 72 hr). It counts as cell-based. The note with it: Homo sapiens, MIA PaCa-2, MiaPaCa2 cells, read-out: IC50 for inhibition of MiaPaCa2. The method, then: as §1
For a further data set, the system named is MCF-7. Kind of data set: Cytotoxicity assay (Cell-titer-Glow, 72 hr). Particulars: Homo sapiens, MCF7; breast cancer line MCF-7, 72hr; read-out: IC50 for inhibition of MCF-7. It counts as cell-based. The method, then:
as §1

The test system of the next data set is Hs587T. Kind of data set: Cytotoxicity assay (Cell-titer-Glow, 72 hr). It counts as cell-based. Particulars: breast cancer line Hs587T, read-out: IC50 for inhibition of Hs587T. The method, then: as §1
The subject of another data set is HL-60. Kind of data set: Cytotoxicity assay (Cell-titer-Glow, 72 hr). It counts as cell-based. Particulars: Homo sapiens; leukemia cell line HL-60, 72hr; read-out: IC50 for inhibition of HL-60. How it is done: as §1
In a further data set the test system is NaLM6. Kind of data set: Cytotoxicity assay (Cell-titer-Glow, 72 hr). The format is cell-based. The note with it: Homo sapiens, NALM-6; leukemia cell line NaLM6, 72hr; read-out: IC50 for inhibition of NaLM6. The method, then:
as §1

The next data set concerns A549. Kind of data set: Cytotoxicity assay (Cell-titer-Glow, 72 hr). It counts as cell-based. The note with it: Homo sapiens, A549 cells, read-out: IC50 for inhibition of A549. How it is done: as §1
The subject of another data set is BT-474. As to the kind of experiment: Cytotoxicity assay (Cell-titer-Glow, 72 hr). The format is cell-based. The note with it: Homo sapiens; breast cancer line BT-474, 72hr; read-out: IC50 for inhibition of BT-474. The method, then:
as §1

The subject of another data set is MV-411. Kind of data set: Cytotoxicity assay (Cell-titer-Glow, 72 hr). It counts as cell-based. The note with it: Homo sapiens, MV4-11; leukemia cell line MV-411, 72hr; read-out: IC50 for inhibition of MV-411. How it is done:
as §1

The next data set relates to KG-1. As to the kind of experiment: Cytotoxicity assay (Cell-titer-Glow, 72 hr). It counts as cell-based. The note with it: Homo sapiens; leukemia cell line KG-1, 72hr; read-out: IC50 for inhibition of KG-1. The method, then:
as §1

In another data set the test system is HL-60 cells. As to the kind of experiment: AML xenograft model. The format is in vivo. The note with it: HL-60 xenograft in NSG mice, 2 mg/kg IV daily. How it is done: For AML xenograft mouse experiments, HL-60 cells (2×10^6) expressing firefly luciferase and GFP are injected through the tail vein into 4-6 week old NOD. Cg-Prkdc^acid Il2rg^tmlWjlSzJ (NSG) mice. Mice are then treated with 2 mg/kg SRS-1006 or 10% DMSO, injected intravenously by tail vein daily seven days after AML cell injection, until death or an endpoint is reached (moribundity) in accordance with the animal care institutional guidelines. Leukemia progression in mice at the indicated time points is monitored using an in vivo IVIS 100 bioluminescenceoptical imaging system (Xenogen Corporation). D-Luciferin (Promega) dissolved in sterile phosphate-buffered saline was injected intraperitoneally at a dose of […], 15 minutes before measuring the luminescent signal. General anesthesia is induced with […] and continued during the procedure using a nose cone. Analysis is performed on Living Image In Vivo imaging software (Perkin-Elmer). Bone marrow is aspirated from bone marrow cavities, and GFP+cells is sorted using the FACSCalibur flow cytometer (BD Biosciences).

For data set [3] the following is noted: in vivo; cited from earlier work.

In the case of `NCCCOc1cc2ccccc2cc1C(=O)NCCOc1cc2ccccc2cc1C(=O)Nc1ccccc1` [SRS-1001], the IC50 in data set [1] (Homo sapiens, HEK-293T) was determined as 1260 nM.
In the case of `NCCCOc1cc2ccccc2cc1C(=O)NCCOc1cc2ccccc2cc1C(=O)Nc1ccc(Cl)cc1` [SRS-1002], the IC50 in data set [1] (Homo sapiens, HEK-293T) came out at 1550 nM.
On to `NCCCOc1cc2ccccc2cc1C(=O)NCCOc1cc2ccccc2cc1C(=O)Nc1ccc(F)cc1` [SRS-1003], for which half-maximal inhibition in [1] (Homo sapiens, HEK-293T) (IC50) was put at 410 nM.
The molecule `N#Cc1ccc(NC(=O)c2cc3ccccc3cc2OCCNC(=O)c2cc3ccccc3cc2OCCCN)cc1` [SRS-1004] yielded a concentration for half-maximal inhibition (IC50) in data set [1] (Homo sapiens, HEK-293T) of 1200 nM.
In turn, `NCCCOc1cc2ccccc2cc1C(=O)NCCOc1cc2ccccc2cc1C(=O)Nc1ccc(Cl)cc1Cl` [SRS-1005] returned an IC50 in data set [1] (Homo sapiens, HEK-293T) of 1550 nM.
As for `Cl.NCCCOc1cc2ccccc2cc1C(=O)NCCOc1cc2ccccc2cc1C(=O)Nc1ccccc1F` [SRS-1006], the bioavailability in data set [2] (single dose 5 mg/kg IV, read-out: IV bioavailability) was found to be 100%; in data set [2] (single dose 10 mg/kg IP, read-out: IP bioavailability) it was 100%; in data set [2] (po, single dose 20 mg/kg orally, read-out: oral bioavailability), 67%. In addition, the IC50 was found to be 1460 nM in the data set on Hep3B; 1700 nM in the data set on MiaPaCa2; 1470 nM in the data set with MCF-7; 3.69 µM in the data set on Hs587T; 650 nM with HL-60; 970 nM in the data set on NaLM6. The IC50 in the data set on A549 is 1490 nM; with BT-474 it was 5.21 µM; in the data set with MV-411 it was 990 nM; in the data set on KG-1, 3.39 µM; in data set [1] (Homo sapiens, HEK-293T) it was 180 nM. For the same molecule, the “median survival in Kaplan-Meier analysis” value with HL-60 cells is reported as “significantly prolonged”. The “disease burden by bioluminescence imaging” value with HL-60 cells (compared to control) is “less disease burden”.
Take `NCCCOc1cc2ccccc2cc1C(=O)NCCOc1cc2ccccc2cc1C(=O)Nc1c(F)cccc1F` [SRS-1007]: the IC50 was found to be 410 nM in data set [1] and 450 nM in [1] (Homo sapiens, HEK-293T).
For the molecule `O=C(Nc1ccc(Cl)cc1)c1cc2ccccc2cc1O` [napththol AS-E, naphthol AS-E], the bioavailability result in data set [3] is reported as “low”.
